In patent publication US20260216141A1, “NECROSIS INHIBITOR” (LINKGEVITY LIMITED, priority 2023, published 2026):
Entries after “also recorded” stand apart in the source; their conditions may differ.

Key:
D. melanogaster = assay: Drosophila cold/freeze stress survival; assay type: in vivo, Drosophila melanogaster; conditions: fed 12 hrs food containing 2500 μM EGTA; 0 degrees for 10 min
Experimental: Animals were under standard culture conditions. On day 1 of adulthood, they were starved for 8 hrs, then fed 12 hrs+/−EGTA 2500 μM. Following this, the animals were moved to 0° C. for 10 min and then recovered and survival measured.
Fruit flies, Drosophila melanogaster, were likewise exposed to heat and cold stress. […]. Flies were starved for a short period of 8 hrs and then fed for 12 hrs yeast containing high doses of a calcium chelating agent to ensure an adequate amount of drug entered the animals; doses used were: 0 or 2500 μM EGTA. This was followed by cold/freeze stress, where animals were placed at 0° C. for 10 min, and then animals were scored for survival every 12 hrs. […] Thus, like with single celled yeast and bacteria and C. elegans, a full organism level protective effect of blocking the predicted weak spots associated with cell death necrosis was also seen in fruit flies.

S. pombi = S. pombi oxidative stress, Propidium iodide staining; assay type: cell-based; conditions: EGTA 2500 μM during stress; 50 min 1 mM H2O2
Experimental: A culture of S. pombi was exposed to 1 mM hydrogen peroxide for 50 min. Following this the yeast cells were washed in buffer and stained with the dye Propidium iodide (PI) and placed on a microscope slide under a coverslip and imaged using Nomarski and epifluorescence microscopy to identify the percentage of yeast cells that underwent necrosis. Treatment is EGTA 2500 μM during stress. Two repeats were performed.
(§1) Bacteria, E. coli, and yeast, S. pombi, were exposed to toxin hydrogen peroxide stress (stress is for 50 min 1 mM H2O2) with or without high doses (2500 μM; c.f. FIG. 2) of the chelating agent EGTA (inhibitor of the predicted weak spot of loss of calcium ion homeostasis in the cytosol) delivered during the stress.
For yeast, cells were stained with the standard viability dye Propidium iodide (PI) that only enters necrotic cells, placed on a microscope slide under a coverslip, and imaged using Nomarski and epifluorescence microscopy to identify the percentage of cells that undergo necrosis (all cells present could be counted using Nomarski microscopy).

E. coli = E. coli oxidative stress, colony forming units; assay type: cell-based; conditions: EGTA 2500 μM during stress; 50 min 1 mM H2O2
Experimental: 2 loops of E. coli stationary-phase bacterial cells collected post seeding (80 μL from a culture grown for 12 hrs) on agar plates containing bactopeptone and allowing to grow for 24 hrs was collected in buffer. Bacterial cells were then stressed for 50 min using 1 mM hydrogen peroxide. Treatment is EGTA 2500 μM during stress. Cells were then washed in buffer. Following stress, bacteria was washed in buffer and then diluted 1:500 in MilliQ water and seeded onto agar plates containing bactopeptone and left at 37° C. overnight. This was followed by counting colony forming units (CFU) counted. Three repeats were performed.
as §1
Following stress, bacteria cells were then placed on agar plates and allowed to grow at 37° C. overnight and colony forming units (CFU) were then counted.

Hepg2s spheroids = Hepg2s spheroids made by hanging drop technique, necrotic core formation; assay type: cell-based, human
Experimental: Multi-cellular spheroids were prepared using a hanging drop method. A stock solution of methylcellulose (MC) was prepared by dissolving 1.2 g of MC powder (4000 cP, Sigma-Aldrich) in 100 ml of DMEM. The solution was magnetically stirred overnight at 4° C. and subsequently centrifuged at 4,000 g for 3 hrs. HepG2s cells were re-suspended in cell medium containing 20% MC stock solution at a concentration of 20,000 cells per 50 μL spheroid. 50 μL drops were subsequently pipetted onto a non-adherent petri dish (Greiner) and, replacing the lid, the dish was turned upside-down and incubated overnight at 37° C. Multi-cellular spheroids were harvested individually with a wide bore pipette or collectively by adding 5 mL cell medium to the dish, collecting and centrifuging the suspension at 300 g for 5 min and resuspending the spheroids in cell medium. Spheroids were then cultured for 5 days in 48 well plates containing 2.5% agarose gel and 400 μl cell medium. EGTA was added at 0 and 2500 μM to both the spheroid pre-cursor solution and the cell culture medium. At day 3 and day 5 the spheroids were imaged and assessed.
Next, 3D cell culture was employed using Hepg2 cells and a standard hanging drop protocol of spheroid production. […] Necrotic cores disrupt physiology, and a challenge is vasculature formation faster than necrotic core formation. […]

[1] = tested on: mouse organs (heart, brain, spleen organotypic slices); assay: Mouse organotypic slices hypoxia stress, PI/DAPI staining; assay type: cell-based; conditions: 2500 μM EGTA during stress, hypoxia 2.5 hrs in N2 gas bubbled buffer
Text: For organotypic cultures, sagittal hippocampal brainslices were taken from wild type mice. Following decapitation, all organs were quickly removed, placed in ice-cold buffer (artificial cerebrospinal fluid (ACSF) [in mmol/L]: NaCl 125, KCl 2.4, NaHCO326, NaH2PO4 1.25, glucose 25, CaCl2 2 [0.5 mmol/L for dissection], MgCl2 1 [5 mmol/L for dissection]; bubbled with carbogen) for brain, and for all other organs Ringers buffer. For brain, to reduce the rate of cell death most dissections were carried out with high-magnesium (5 mmol/L)/low-calcium (0.5 mmol/L) ACSF. The brain was hemisected and a section was cut away by hand that was approximately 100° from the midline surface. The hemispheres were then mounted with superglue on to a slicing stage and 300 μm hippocampal slices were cut with a vibroslicer and transferred to an incubating chamber with circulating ACSF (bubbled with carbogen). All other organs were treated similarly but Ringer's buffer was used instead of ACSF. For the heart and spleen, cross sectional slices going fully across the organ were taken. The slices were incubated at 35° C. for approximately 1 hrs before the incubator was switched off and the bath was allowed to cool to room temperature. […]

In the case of `O=C(O)CN(CCOCCOCCN(CC(=O)O)CC(=O)O)CC(=O)O` [EGTA, ethylene glycol-bis(β-aminoethyl ether)-N,N,N′,N′-tetraacetic acid], the “D. melanogaster death / survival following cold/freeze stress” value (D. melanogaster) is reported as “death is prevented; also recorded: significant protective effect”, the “S. pombi death / % of necrotic (PI stained) cells following oxidative stress” value (S. pombi) is reported as “death is prevented” and the “E. coli death / colony forming units (CFU) following oxidative stress” value (E. coli) is reported as “death is prevented”. For the same molecule, the necrotic core formation (Hepg2s spheroids; hanging drop Hepg2s spheroids, 2500 μM EGTA or 5000 μM EGTA, 5 days) was “no necrotic core even after 5 days”, the necrotic core formation (Hepg2s spheroids; hanging drop Hepg2 spheroids, 20,000 cells, EGTA at 250 and 500 mM, day 5) was “no necrotic cores being visible” and the “% of necrotic cells (PI stain) relative to all cells (DAPI stain)” value [1] was “necrosis cell death is prevented; also recorded: marked improvement in all 3 tissue types”.
